Reference: US20250177408A1, “INHIBITOR OF INTERACTION BETWEEN YAP/TAZ AND TEAD, PREPARATION THEREOF, PHARMACEUTICAL COMPOSITION THEREOF AND USE THEREOF” (ETERN BIOPHARMA (SHANGHAI) CO., LTD., priority 2022, published 2025)

Columns and labels:
[1] = system: YAP/TEAD reporter gene; experiment: YAP/TEAD reporter gene inhibition experiment in SF268-YAP-Luc cells; format: cell-based; settings: SF268-YAP-Luc cells, 24 hours, Renila luciferase signal corrected for cell viability; read-out: Activity of each compound in inhibiting the expression of YAP/TEAD reporter gene (grades of IC50 values)
Experimental: In this example, the inhibition of the compound on the target was detected by the signal of the reporter gene in the stable cell line SF268-YAP-Luc containing the YAP/TEAD reporter gene.
A sequence containing 6 tandem YAP/TEAD binding sites and a basal transcription promoter was constructed on the vector pGL4.76 of Promega Company. The constructed reporter gene vector was transfected into SF268 cells (NCI DCTD tumor/cell line repository) and screened with 0.5 μg/mL hygromycin to obtain SF268-YAP-Luc stable strain.
SF268-YAP-Luc cells were seeded into a 96-well plate at a density of 3000 cells per well with a volume of 100 μL per well (cell culture medium composition: RPMI1640 (Gibco-A10491-01)+10% FBS (Gibco-10099-141C)+1% penicillin-streptomycin (5,000 U/mL, Gibco-15070-063)), and the cells were incubated overnight in a 37° C., 5% carbon dioxide incubator.
On the next day, the compounds to be tested were 3-fold diluted, and a total of 8 concentration gradients were set up; a certain volume of DMSO or the compounds to be tested was added to each well, respectively, and 2 replicates were set up for each concentration, and the final concentration of DMSO was controlled to be no higher than 0.5%. The cells were incubated for 24 hours in a 37° C., 5% carbon dioxide incubator. Two identical parallel plates were set up for cell seeding and compound treatment.
Renila-Glo luciferase assay system kit (Promega, E2720) was used to detect the reporter gene signals of the control group and treatment group. 70 μL of Renila-Glo was added to each well, mixed well, and incubated at room temperature for 10 minutes. The signal was read using EnVision® Multilabel Plate Reader (Perkin Elmer).
Cell viability was detected in the control group and treatment group using CellTiter-Glo Luminescent Cell Viability Assay kit (Promega, G7570). 50 μL of CellTiter-Glo was added to each well, mixed well, and incubated at room temperature for 10 minutes. The signal was read using En Vision® Multilabel Plate Reader (Perkin Elmer).
The signal of Renila luciferase after correcting for cell viability was analyzed, and the inhibition rate of the compound on the reporter gene was calculated. The inhibition percentage (%) is calculated by the following formula: […]
Using Graphpad Prism software, the IC50 values for the compounds' inhibitory activity against Renila luciferase signaling were calculated.

[2] = target: YAP-TEAD protein interaction (His-TEAD1 (209-426) protein, Bio-YAP peptide (60-100)) (Homo sapiens, UniProt P28347); experiment: YAP-TEAD protein interaction HTRF experiment; format: binding; settings: His-TEAD1 (209-426) 10 nM, Bio-YAP peptide 50 nM, read-out: Activity of each compound in blocking YAP-TEAD protein interaction (grades of IC50 values)
Outline: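 His-TEAD1 (209-426) at 10 nM final was preincubated 20 min at RT with compounds (10-point 3-fold dilutions, duplicates, 1% DMSO), then Bio-YAP peptide, 10 min. Anti-His-Eu cryptate/streptavidin-XL665 added for 1 h at RT; HTRF read at ex 320 nm, Em665/Em620 ratio ×10000, IC50 from % inhibition.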

[3] = system: MSTO-211H cells; experiment: Cell proliferation inhibition experiment (CellTiter-Glo); format: cell-based; settings: Homo sapiens, 96 hours, read-out: Inhibitory activity of each compound on the proliferation of MSTO-211H cells (grades of IC50 values)
Outline: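 MSTO-211H cells (1500/well, RPMI1640 + 10% FBS) were plated overnight at 37° C, 5% CO2, then exposed in duplicate to 9 three-fold compound dilutions (DMSO ≤0.5% final) for 96 hours. Viability was read as CellTiter-Glo luminescence after 10 min at room temperature. IC50 was derived from inhibition of the CTG signal.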

Chain of YAP-TEAD protein interaction (His-TEAD1 (209-426) protein, Bio-YAP peptide (60-100)) (P28347 209-426): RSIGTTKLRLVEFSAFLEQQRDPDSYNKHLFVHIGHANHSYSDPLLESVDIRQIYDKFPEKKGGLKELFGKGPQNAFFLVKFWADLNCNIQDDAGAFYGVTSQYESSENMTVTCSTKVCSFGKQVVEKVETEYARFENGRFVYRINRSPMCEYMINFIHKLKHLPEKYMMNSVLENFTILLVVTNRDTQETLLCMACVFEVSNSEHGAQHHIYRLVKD

| SMILES | IC50 [1] | IC50 [2] | IC50 [3] |
| --- | --- | --- | --- |
| NC(=O)c1cc2c(c(F)c1-c1c(Cl)c(F)cc3c1C[C@](c1ccccc1)([C@@H]1CCCN1)O3)OCCO2 (atropisomer, axis not shown) [Compound 1, 7-((2S,4S)-5-Chloro-6-fluoro-2-phenyl-2-((S)-pyrrolidin-2-yl)-2,3-dihydrobenzofuran-4-yl)-8-fluoro-2,3-dihydrobenzo[b][1,4]dioxine-6-carboxamide] | < 50 nM | < 50 nM | < 200 nM |
| CC(=O)N1CCOc2c1cc(C(N)=O)c(-c1c(Cl)c(F)cc3c1C[C@](c1ccccc1)([C@@H]1CCCN1)O3)c2F (atropisomer, axis not shown) [Compound I-27, (S)-4-Acetyl-7-((S)-5-chloro-6-fluoro-2-phenyl-2-((S)-pyrrolidin-2-yl)-2,3-dihydrobenzofuran-4-yl)-8-fluoro-3,4-dihydro-2H-benzo[b][1,4]oxazine-6-carboxamide] | < 50 nM | < 50 nM | 200 to 500 nM |
| NC(=O)c1cc2c(c(F)c1-c1c(Cl)c(F)cc3c1C[C@](c1ccccc1)([C@@H]1CCCN1)O3)OCC(=O)N2 (atropisomer, axis not shown) [Compound I-23, (S)-7-((S)-5-Chloro-6-fluoro-2-phenyl-2-((S)-pyrrolidin-2-yl)-2,3-dihydrobenzofuran-4-yl)-8-fluoro-3-oxo-3,4-dihydro-2H-benzo[b][1,4]oxazine-6-carboxamide] | 50 to 500 nM | < 50 nM | < 200 nM |
| NC(=O)c1cc2c(c(F)c1-c1c(Cl)c(F)cc3c1CC(c1ccccc1)(C1CCCN1)O3)OCCN2 [Compound I-19, (S)-7-((S)-5-Chloro-6-fluoro-2-phenyl-2-((S)-pyrrolidin-2-yl)-2,3-dihydrobenzofuran-4-yl)-8-fluoro-3,4-dihydro-2H-benzo[b][1,4]oxazine-6-carboxamide] | < 50 nM | < 50 nM | – |
| CN1CCOc2c1cc(C(N)=O)c(-c1c(Cl)c(F)cc3c1C[C@](c1ccccc1)([C@@H]1CCCN1)O3)c2F (atropisomer, axis not shown) [Compound I-24, (S)-7-((S)-5-Chloro-6-fluoro-2-phenyl-2-((S)-pyrrolidin-2-yl)-2,3-dihydrobenzofuran-4-yl)-8-fluoro-4-methyl-3,4-dihydro-2H-benzo[b][1,4]oxazine-6-carboxamide] | < 50 nM | < 50 nM | < 200 nM |
| CN1C(=O)COc2c1cc(C(N)=O)c(-c1c(Cl)c(F)cc3c1C[C@](c1ccccc1)([C@@H]1CCCN1)O3)c2F (atropisomer, axis not shown) [Compound I-25, (S)-7-((S)-5-Chloro-6-fluoro-2-phenyl-2-((S)-pyrrolidin-2-yl)-2,3-dihydrobenzofuran-4-yl)-8-fluoro-4-methyl-3-oxo-3,4-dihydro-2H-benzo[b][1,4]oxazine-6-carboxamide] | 50 to 500 nM | < 50 nM | 200 to 500 nM |
| [2H]C1([2H])CC[C@]([2H])([C@@]2(c3ccccc3)Cc3c(cc(F)c(Cl)c3-c3c(C(N)=O)cc4c(c3F)Oc3c(cnn(CCC(F)(F)F)c3=O)O4)O2)N1 (atropisomer, axis not shown) [Compound 155, (S)-8-((S)-5-Chloro-6-fluoro-2-phenyl-2-((S)-pyrrolidin-2-yl-2,5,5-d3)-2,3-dihydrobenzofuran-4-yl)-9-fluoro-1-oxo-2-(3,3,3-trifluoropropyl)-1,2-dihydroxybenzo[5,6][1,4] dioxo[2,3-d]pyridazine-7-carboxamide] | – | < 50 nM | < 200 nM |
| Cn1cc2c(n1)COc1c-2cc(C#N)c(-c2c(Cl)c(F)cc3c2C[C@](c2ccccc2)([C@@H]2CCCN2)O3)c1F (atropisomer, axis not shown) [Compound 2, (S)-7-((S)-5-Chloro-6-fluoro-2-phenyl-2-((S)-pyrrolidin-2-yl)-2,3-dihydrobenzofuran-4-yl)-6-fluoro-2-methyl-2,4-dihydrochromeno[3,4-c]pyrazole-8-carbonitrile] | – | < 50 nM | 200 to 500 nM |
| NC(=O)c1cc2c(c(F)c1-c1c(Cl)c(F)cc3c1C[C@](c1ccccc1)([C@@H]1CCCN1)O3)Oc1c(cn[nH]c1=O)O2 (atropisomer, axis not shown) [Compound 107, (S)-8-((S)-5-Chloro-6-fluoro-2-phenyl-2-((S)-pyrrolidin-2-yl)-2,3-dihydrobenzofuran-4-yl)-9-fluoro-1-oxo-1,2-dihydrobenzo[5,6][1,4]dioxo [2,3-d]pyridazine-7-carboxamide] | – | < 50 nM | < 200 nM |
| NC(=O)c1cc2c(c(F)c1-c1c(Cl)c(F)cc3c1C[C@](c1ccccc1)([C@@H]1CCCN1)O3)Oc1ncccc1C2O (stereo partly drawn) [Compound 104, (S)-8-((S)-5-Chloro-6-fluoro-2-phenyl-2-((S)-pyrrolidin-2-yl)-2,3-dihydrobenzofuran-4-yl)-9-fluoro-5-hydroxy-5H-benzo[2,3-b]pyridine-7-carboxamide] | – | < 50 nM | 200 to 500 nM |
| Cn1cnc2c(c1=O)Oc1c(cc(C(N)=O)c(-c3c(Cl)c(F)cc4c3CC(c3ccccc3)(C3CCCN3)O4)c1F)O2 [Compound 126, (S)-7-((S)-5-Chloro-6-fluoro-2-phenyl-2-((S)-pyrrolidin-2-yl)-2,3-dihydrobenzofuran-4-yl)-6-fluoro-3-methyl-4-oxo-3,4,7,8-tetrahydrobenzo[5,6][1,4]dioxo[2,3-d]pyrimidine-8-carboxamide] | – | < 50 nM | < 200 nM |
| CNC[C@@]1(c2ccccc2)Cc2c(cc(F)c(Cl)c2-c2c(C(N)=O)cn3ccnc3c2F)O1 (atropisomer, axis not shown) [Compound I-1] | < 50 nM | < 50 nM | < 200 nM |
| CCn1ncc2c(c1=O)Oc1cc(C(N)=O)c(-c3c(Cl)c(F)cc4c3C[C@](c3ccccc3)([C@@H]3CCCN3)O4)c(F)c1O2 (atropisomer, axis not shown) [Compound 110, (S)-8-((S)-5-Chloro-6-fluoro-2-phenyl-2-((S)-pyrrolidin-2-yl)-2,3-dihydrobenzofuran-4-yl)-3-ethyl-9-fluoro-4-oxo-3,4-dihydrobenzo[5,6][1,4]dioxo [2,3-d]pyridazine-7-carboxamide] | – | < 50 nM | 200 to 500 nM |
| Cn1cc2c(n1)Oc1c(cc(C(N)=O)c(-c3c(Cl)c(F)cc4c3C[C@](c3ccccc3)([C@@H]3CCCN3)O4)c1F)O2 (atropisomer, axis not shown) [Compound 8, (S)-7-((S)-5-Chloro-6-fluoro-2-phenyl-2-((S)-pyrrolidin-2-yl)-2,3-dihydrobenzofuran-4-yl)-8-fluoro-2-methyl-2H-benzo[5,6][1,4]dioxoino[2,3-c]pyrazole-6-carboxamide] | < 50 nM | < 50 nM | < 200 nM |
| Cn1cc2c(n1)COc1c-2cc(C(N)=O)c(-c2c(Cl)c(F)cc3c2C[C@](c2ccccc2)([C@@H]2CCCN2)O3)c1F (atropisomer, axis not shown) [Compound 3, (S)-7-((S)-5-Chloro-6-fluoro-2-phenyl-2-((S)-pyrrolidin-2-yl)-2,3-dihydrobenzofuran-4-yl)-6-fluoro-2-methyl-2,4-dihydrochromeno[3,4-c]pyrazole-8-carboxamide] | < 50 nM | < 50 nM | < 200 nM |
